How the values were obtained:
[1] = target: T1, Glycogen synthase kinase-3 beta (Homo sapiens, UniProt P49841)
in vitro = conditions: mouse, ht-22
[2] = target: T2, Dual specificity protein kinase CLK1 (Homo sapiens, UniProt P49759)
[3] = target: Casein kinase I isoform epsilon (Homo sapiens, UniProt P49674); assay: biochemical; format: cell-based, Sf9
[4] = target: Cyclin-dependent kinase 5/CDK5 activator 1 (Homo sapiens, UniProt Q00535); assay: biochemical; format: cell-based, Sf9
[5] = target: T3, Dual specificity tyrosine-phosphorylation-regulated kinase 3 (Homo sapiens, UniProt O43781); assay: biochemical; format: cell-based, Sf9
T3 sequence (O43781 whole entry): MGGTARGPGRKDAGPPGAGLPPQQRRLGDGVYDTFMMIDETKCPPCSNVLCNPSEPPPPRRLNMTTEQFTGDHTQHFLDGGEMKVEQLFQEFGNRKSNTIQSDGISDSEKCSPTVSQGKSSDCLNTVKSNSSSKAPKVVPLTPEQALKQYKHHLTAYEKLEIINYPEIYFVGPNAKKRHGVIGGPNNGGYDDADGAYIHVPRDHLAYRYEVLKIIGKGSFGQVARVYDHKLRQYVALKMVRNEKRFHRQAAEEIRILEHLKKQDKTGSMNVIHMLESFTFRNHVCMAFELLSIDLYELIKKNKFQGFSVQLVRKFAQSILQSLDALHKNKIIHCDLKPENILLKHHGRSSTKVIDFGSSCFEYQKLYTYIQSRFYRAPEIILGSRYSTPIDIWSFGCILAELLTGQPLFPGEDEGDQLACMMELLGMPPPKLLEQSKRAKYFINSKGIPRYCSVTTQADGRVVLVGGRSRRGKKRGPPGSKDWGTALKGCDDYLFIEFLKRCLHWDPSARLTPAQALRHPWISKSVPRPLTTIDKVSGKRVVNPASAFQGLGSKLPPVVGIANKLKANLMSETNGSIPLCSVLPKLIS

[6] = target: T1, Glycogen synthase kinase-3 beta; assay: biochemical; format: cell-based, Sf9
[7] = target: Dual specificity protein kinase CLK2 (Homo sapiens, UniProt P49760); assay: biochemical
[8] = target: Dual specificity protein kinase CLK4 (Homo sapiens, UniProt Q9HAZ1); assay: biochemical
[9] = target: Dual specificity protein kinase CLK3 (Homo sapiens, UniProt P49761); assay: biochemical; format: cell-based, Sf9
[10] = target: T2, Dual specificity protein kinase CLK1; assay: biochemical; format: cell-based, Sf9
[11] = target: T4, Dual specificity tyrosine-phosphorylation-regulated kinase 2 (Homo sapiens, UniProt Q92630); assay: biochemical; format: cell-based, Sf9
T4 sequence (Q92630 whole entry): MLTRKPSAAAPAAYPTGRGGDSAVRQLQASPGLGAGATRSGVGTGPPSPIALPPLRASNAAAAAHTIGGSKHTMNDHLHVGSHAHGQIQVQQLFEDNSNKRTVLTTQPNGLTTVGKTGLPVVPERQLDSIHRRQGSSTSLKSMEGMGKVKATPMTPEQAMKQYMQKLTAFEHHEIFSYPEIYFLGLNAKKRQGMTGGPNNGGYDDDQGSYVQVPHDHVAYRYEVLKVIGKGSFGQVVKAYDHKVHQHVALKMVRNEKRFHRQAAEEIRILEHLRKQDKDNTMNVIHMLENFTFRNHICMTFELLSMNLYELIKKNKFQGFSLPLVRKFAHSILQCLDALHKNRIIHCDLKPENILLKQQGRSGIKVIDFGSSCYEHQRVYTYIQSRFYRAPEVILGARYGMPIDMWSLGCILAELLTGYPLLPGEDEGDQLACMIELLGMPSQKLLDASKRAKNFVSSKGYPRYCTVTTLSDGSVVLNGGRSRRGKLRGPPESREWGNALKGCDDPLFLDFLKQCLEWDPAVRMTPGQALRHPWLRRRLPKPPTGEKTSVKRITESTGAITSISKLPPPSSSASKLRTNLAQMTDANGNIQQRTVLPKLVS

[12] = target: T5, Dual specificity tyrosine-phosphorylation-regulated kinase 4 (Homo sapiens, UniProt Q9NR20); assay: biochemical; format: cell-based, Sf9
T5 sequence (Q9NR20 whole entry): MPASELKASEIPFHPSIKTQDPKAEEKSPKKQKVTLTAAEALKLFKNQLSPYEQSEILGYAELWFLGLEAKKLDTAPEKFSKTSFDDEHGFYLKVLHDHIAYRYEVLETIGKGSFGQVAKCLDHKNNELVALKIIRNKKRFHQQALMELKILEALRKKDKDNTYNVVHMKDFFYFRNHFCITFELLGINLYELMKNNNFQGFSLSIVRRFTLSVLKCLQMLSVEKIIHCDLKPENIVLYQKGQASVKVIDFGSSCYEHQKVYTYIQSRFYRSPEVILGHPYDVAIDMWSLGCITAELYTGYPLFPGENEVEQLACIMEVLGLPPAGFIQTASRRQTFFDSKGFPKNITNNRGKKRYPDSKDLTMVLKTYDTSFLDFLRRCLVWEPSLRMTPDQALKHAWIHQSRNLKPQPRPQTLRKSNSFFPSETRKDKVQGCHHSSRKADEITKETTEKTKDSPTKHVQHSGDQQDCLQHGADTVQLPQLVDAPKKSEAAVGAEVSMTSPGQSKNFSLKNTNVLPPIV

[13] = target: T2, Dual specificity protein kinase CLK1; assay: biochemical; format: cell-based, Sf9; remark: listed apart in the source

T1 sequence (P49841 whole entry): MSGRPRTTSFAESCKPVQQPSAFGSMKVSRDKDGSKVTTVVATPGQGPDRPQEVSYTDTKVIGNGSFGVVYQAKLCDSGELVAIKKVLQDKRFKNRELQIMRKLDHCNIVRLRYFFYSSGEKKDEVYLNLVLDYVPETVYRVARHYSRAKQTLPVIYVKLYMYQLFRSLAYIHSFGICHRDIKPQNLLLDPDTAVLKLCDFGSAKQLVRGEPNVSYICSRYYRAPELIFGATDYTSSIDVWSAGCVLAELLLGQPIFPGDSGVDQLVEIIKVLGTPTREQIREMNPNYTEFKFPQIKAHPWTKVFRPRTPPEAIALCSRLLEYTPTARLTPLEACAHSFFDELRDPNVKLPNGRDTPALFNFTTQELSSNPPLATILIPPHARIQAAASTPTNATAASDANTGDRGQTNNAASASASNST
Sequence of Casein kinase I isoform epsilon (P49674 whole entry, canonical isoform): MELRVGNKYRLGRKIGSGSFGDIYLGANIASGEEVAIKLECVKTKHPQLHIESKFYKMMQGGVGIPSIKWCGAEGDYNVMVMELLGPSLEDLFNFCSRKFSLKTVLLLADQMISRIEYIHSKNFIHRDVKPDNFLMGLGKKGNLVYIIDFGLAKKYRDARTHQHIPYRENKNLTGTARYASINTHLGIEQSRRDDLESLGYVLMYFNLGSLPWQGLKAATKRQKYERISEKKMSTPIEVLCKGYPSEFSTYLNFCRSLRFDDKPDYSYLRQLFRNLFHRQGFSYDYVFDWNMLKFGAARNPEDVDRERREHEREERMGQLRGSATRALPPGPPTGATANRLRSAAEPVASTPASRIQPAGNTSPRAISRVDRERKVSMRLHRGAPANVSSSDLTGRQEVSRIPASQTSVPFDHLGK
Sequence of Dual specificity protein kinase CLK2 (P49760 whole entry): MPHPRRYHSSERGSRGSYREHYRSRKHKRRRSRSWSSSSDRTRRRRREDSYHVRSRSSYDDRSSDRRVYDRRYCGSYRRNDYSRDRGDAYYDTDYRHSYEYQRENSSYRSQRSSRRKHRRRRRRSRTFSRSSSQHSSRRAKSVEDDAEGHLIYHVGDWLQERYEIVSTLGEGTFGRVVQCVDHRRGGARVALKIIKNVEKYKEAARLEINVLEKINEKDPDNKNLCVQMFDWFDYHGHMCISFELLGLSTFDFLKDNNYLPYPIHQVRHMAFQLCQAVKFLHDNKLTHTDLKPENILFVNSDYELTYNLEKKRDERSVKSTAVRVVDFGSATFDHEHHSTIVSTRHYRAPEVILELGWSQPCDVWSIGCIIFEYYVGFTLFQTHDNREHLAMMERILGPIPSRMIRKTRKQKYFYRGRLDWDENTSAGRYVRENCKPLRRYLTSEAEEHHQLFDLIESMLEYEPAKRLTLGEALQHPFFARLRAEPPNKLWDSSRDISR
T2 sequence (P49759 whole entry, canonical isoform): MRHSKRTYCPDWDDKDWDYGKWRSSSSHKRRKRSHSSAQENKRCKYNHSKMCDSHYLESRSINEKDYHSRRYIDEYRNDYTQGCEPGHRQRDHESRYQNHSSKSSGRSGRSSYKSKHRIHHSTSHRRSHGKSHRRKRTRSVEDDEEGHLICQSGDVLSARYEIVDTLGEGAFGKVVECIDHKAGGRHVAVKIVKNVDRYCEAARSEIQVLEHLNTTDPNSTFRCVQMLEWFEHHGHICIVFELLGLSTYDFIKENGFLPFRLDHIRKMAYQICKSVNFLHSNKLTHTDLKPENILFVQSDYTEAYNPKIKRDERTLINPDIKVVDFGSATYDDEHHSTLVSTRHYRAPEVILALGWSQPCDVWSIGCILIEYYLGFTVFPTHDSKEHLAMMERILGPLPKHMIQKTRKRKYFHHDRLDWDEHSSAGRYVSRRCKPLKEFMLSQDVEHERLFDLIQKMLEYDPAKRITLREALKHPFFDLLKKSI
Sequence of Cyclin-dependent kinase 5/CDK5 activator 1 (Q00535 whole entry): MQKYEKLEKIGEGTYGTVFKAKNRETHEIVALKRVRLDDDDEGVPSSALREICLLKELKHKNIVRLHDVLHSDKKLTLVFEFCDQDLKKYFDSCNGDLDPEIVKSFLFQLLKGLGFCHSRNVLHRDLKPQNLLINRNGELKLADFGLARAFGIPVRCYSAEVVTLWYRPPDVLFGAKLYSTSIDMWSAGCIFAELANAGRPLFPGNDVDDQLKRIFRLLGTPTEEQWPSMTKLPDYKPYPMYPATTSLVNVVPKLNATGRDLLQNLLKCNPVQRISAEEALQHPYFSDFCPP
Sequence of Cyclin-dependent kinase 5/CDK5 activator 1 (Q15078 whole entry, further chain): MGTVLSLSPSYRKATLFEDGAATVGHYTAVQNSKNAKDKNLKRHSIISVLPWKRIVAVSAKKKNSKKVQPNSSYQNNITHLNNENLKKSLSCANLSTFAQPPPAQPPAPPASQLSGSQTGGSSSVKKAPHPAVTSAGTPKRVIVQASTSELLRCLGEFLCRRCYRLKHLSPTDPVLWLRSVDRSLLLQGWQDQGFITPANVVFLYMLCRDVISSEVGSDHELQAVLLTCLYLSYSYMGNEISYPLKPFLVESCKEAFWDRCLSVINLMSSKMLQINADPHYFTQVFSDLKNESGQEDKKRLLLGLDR
Sequence of Dual specificity protein kinase CLK3 (P49761 whole entry): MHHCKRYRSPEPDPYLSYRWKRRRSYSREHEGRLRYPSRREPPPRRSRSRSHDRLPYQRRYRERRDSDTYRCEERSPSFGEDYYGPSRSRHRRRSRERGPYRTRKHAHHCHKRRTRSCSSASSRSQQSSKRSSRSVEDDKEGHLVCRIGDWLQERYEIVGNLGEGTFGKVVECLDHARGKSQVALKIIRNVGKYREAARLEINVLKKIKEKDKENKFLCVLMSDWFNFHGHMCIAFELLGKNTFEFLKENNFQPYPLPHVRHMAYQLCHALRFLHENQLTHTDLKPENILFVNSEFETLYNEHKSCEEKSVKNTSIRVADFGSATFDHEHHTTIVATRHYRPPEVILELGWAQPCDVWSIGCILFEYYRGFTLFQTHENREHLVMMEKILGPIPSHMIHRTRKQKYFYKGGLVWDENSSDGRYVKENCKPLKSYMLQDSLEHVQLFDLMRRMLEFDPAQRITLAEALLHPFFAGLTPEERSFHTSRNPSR
Sequence of Dual specificity protein kinase CLK4 (Q9HAZ1 whole entry): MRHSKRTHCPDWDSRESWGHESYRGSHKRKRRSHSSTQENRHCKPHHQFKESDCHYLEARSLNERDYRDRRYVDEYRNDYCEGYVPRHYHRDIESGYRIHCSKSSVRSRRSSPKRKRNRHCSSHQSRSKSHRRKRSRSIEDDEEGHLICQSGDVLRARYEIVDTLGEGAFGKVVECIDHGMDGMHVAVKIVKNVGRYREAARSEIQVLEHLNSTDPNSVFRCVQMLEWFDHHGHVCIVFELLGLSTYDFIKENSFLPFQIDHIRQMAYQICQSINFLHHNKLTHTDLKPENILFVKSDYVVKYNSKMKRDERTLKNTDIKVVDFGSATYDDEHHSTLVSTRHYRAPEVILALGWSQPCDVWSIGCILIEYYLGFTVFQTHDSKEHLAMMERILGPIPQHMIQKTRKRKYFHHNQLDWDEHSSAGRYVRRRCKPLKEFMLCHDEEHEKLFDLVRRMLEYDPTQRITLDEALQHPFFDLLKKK

Kd [1] [µM]	IC50 at 48 h (in vitro) [µM]	Kd [2] [µM]	IC50 [3] [µM]	IC50 [4] [µM]	IC50 [5] [µM]	IC50 [6] [µM]	IC50 [7] [µM]	IC50 [8] [µM]	IC50 [9] [µM]	IC50 [10] [µM]	IC50 [11] [µM]	IC50 [12] [µM]	IC50 ([13]; read-out: IC50) [µM]	IC50 ([13]; sf9)	Structure (SMILES)
1.64	> 100	0.00127	2.98	> 10	0.0826	4.4	0.315	0.0109	4.79	0.0442	0.226	0.894			CCN1/C(=C/C(C)=O)Sc2ccc(O)cc21
1.98	42.5	0.00163	> 10	1.8	5.85	7.51	0.211	0.015	1.69	0.0396	1.25	> 10	0.0242		c1ccc(-c2ccc3[nH]ncc3c2)cc1
0.475	> 100	0.00622	> 10			> 10	5.14	0.316	> 10	3.61		> 10	0.0146		O=C(O)c1nc2ccccc2c2[nH]c3c(I)cccc3c12
0.16	21.6	0.00763	> 10	> 10	> 10	5.33	> 10	0.0796	> 10	1.21	0.323	> 10	0.111		COC(=N)c1nc2ccc3ncnc(Nc4ccc(OC)cc4F)c3c2s1
2.58	97	0.0087	> 10	> 10	1.22	> 10	0.63	0.0238	4.92	0.157	0.813	8.37	0.0883		COc1ccc2c3ccnc(Cl)c3n(CC#N)c2c1
> 10	9	0.0708	> 10	> 10	> 10	> 10	1.99	0.89	> 10	0.57	3.35	> 10	0.18		Oc1ccc(-c2cnc3[nH]cc(-c4ccc(F)cc4)c3c2)cc1O
9.59	5.8		2.9	0.273	> 10	> 10	0.0365	0.0095	1.19		0.01	0.171			Cc1nc2ccc(-c3cc(N)nc(N)c3)nc2n1C(C)C
> 10	58.6	0.00538	> 10	9.67	4.45	> 10		0.219	2.97	0.319	3.27	9.59			CN(C)c1nccc(-c2cnn3ncccc23)n1
0.26	5.5	0.00131	0.0389	0.0384	0.0719	0.159	0.0143	0.0047	0.207	0.0104	0.0329	0.0268	0.0379		Oc1ccc(-c2n[nH]c3ncc(-c4ccc(O)c(O)c4)cc23)cc1
0.939	27.8	0.000395	1.77	> 10	0.0227	3.09	0.0953	0.014	0.0926	0.0211	0.0156	0.108	0.0136		O=C1NC(=Nc2c(Cl)cccc2Cl)S/C1=C\c1ccc2nccnc2c1
0.936	> 100		> 10	> 10	> 10	3.39	2.5	> 10	> 10		1.1	> 10		Not Active	CN1Cc2nn(C)c(C#N)c2-c2cnc3[nH]c(F)c(c3c2)-c2cn(nc2C(F)(F)F)CCCC1=O
7.29	51.3		> 10	> 10	> 10	> 10	6.71		> 10		8.78	> 10			CN1Cc2nn(C)c(C#N)c2-c2cnc3[nH]cc(c3c2)-c2cn(nc2C(F)(F)F)CCCC1=O
0.396	20.9	0.00058	> 10	> 10	0.0235	2.2	0.0333	0.0067	0.64	0.0114	0.0268	3.69	0.0318		COC1=CC2C(=O)NC3=Cc4ccc(OC)cc4C(=C1OC)C32 (stereo not given)

Structure (SMILES)	Kd [1] [µM]	IC50 at 48 h (in vitro) [µM]	Kd [2] [µM]	IC50 [3] [µM]	IC50 [4] [µM]	IC50 [5] [µM]	IC50 [6] [µM]	IC50 [7] [µM]	IC50 [8] [µM]	IC50 [9] [µM]	IC50 [10] [µM]	IC50 [11] [µM]	IC50 [12] [µM]	IC50 ([13]; read-out: IC50) [µM]	IC50 ([13]; sf9)
CCOC(=O)c1c(/C(C#N)=C\N)c2ccc(Cl)c(Cl)c2n1C	> 10	> 100		> 10	> 10	> 10	> 10		0.0148			> 10	> 10		
COc1cc(N2CCN(C)CC2)ccc1Nc1nccc(-c2cn(C)c3cnccc23)n1	> 10	27.8	0.00735	> 10	1.06	1.22	> 10	3.5	0.403	> 10	0.568	0.764	6.25	0.175	
O=c1c2c(O)cc(O)cc2oc2c(O)ccc(O)c12 [DEMETHYLBELLIDIFOLIN]	> 10	2.5	0.0297	> 10	> 10	> 10	> 10	1.7	0.146	7.53	0.239	2.71	> 10		
CN1C(=O)/C(=C/c2ccc3c(c2)OCO3)N=C1N [LEUCETTAMINE B]	> 10	> 100	0.0369	> 10		4.89	> 10	3.09	0.396	> 10	0.646	2.73	6.37		

— ChEMBL document CHEMBL5247649, “Comparative Efficacy and Selectivity of Pharmacological Inhibitors of DYRK and CLK Protein Kinases” (J Med Chem, 2023)
